Test results as given in US4894340A, “Microbial sulfhydryl oxidase and method” (priority 1987, dated 1990).
Where two headings read alike, the source gives them in different places. Blank lines part the entries; values can stand above or below the compound they belong to.

Experiments:
[1] = system: A. niger sulfhydryl oxidase; experiment: Polarographic O2 depletion assay of sulfhydryl oxidase with thiol compounds and substrates of other oxidases; type: biochemical, Aspergillus niger; settings: for kcat (app)/Km (app) (head is drawing 1) / kcat (app) / Km: purified enzyme, polarographic assay; for kcat (app) / Km: double reciprocal plot; for Km: read-out: Km (app); for Activity toward substrates of other known oxidases: test compound 10 mM in 40 mM sodium acetate at pH 5.5
Method: Two assays have been employed to determine SHX activity. The first assay is based on the depletion of O2 from assay mixtures containing thiol compounds; oxygen depletion is measured polarographically by oxygen electrode techniques. One unit of SHX is defined as that amount of enzyme which would utilize or consume 1 umol of O2 per minute under the conditions of the assay.
Rates of O2 depletion by the purified enzyme were measured at selected concentrations of GSH, cysteine, dithiothreitol and 2-mercapto-ethanol. […] Kinetic constants were calculated from the double reciprocal plot by linear regression fitting of the data points.
The enzyme was tested for activity toward substrates of other known oxidases, including D-glucose, D-fructose, L-lysine, D-lysine, benzylamine, xanthine, putrescine, catechol, nicotinamide adenine dinucleotide (reduced) ("NADH") and nicotinamide adenine dinucleotide phosphate (reduced) ("NADPH").
In a typical assay, 2.9 mL of a mixture consisting of a thiol compound in an appropriate buffer was equilibrated with stirring to 25° C. After the vial was sealed with the electrode, a volume of 0.1 mL of enzyme solution was injected into the assay mixture. […] One unit of sulfhydryl oxidase was defined as that amount of enzyme which would deplete 1 umole of O2 per minute under the conditions of the assay. Unless otherwise indicated, the assay mixture contained 8 mM GSH in 40 mM acetate buffer, pH 5.5, at 25° C.

[2] = system: sulfhydryl apooxidase; experiment: Reactivation of sulfhydryl apooxidase by resolved flavins or standards; type: biochemical, Aspergillus niger; settings: for Activity: apooxidase after 14 hours incubation at 0° C. with resolved flavins or standards
Text: At […], FAD is weakly fluorescent owing to quenching by its adenine moiety. FMN and other nonadenylated flavins, on the other hand, fluoresce strongly under both conditions of pH (Bessey et al., 1949); Cerletti and Siliprandi, 1958). Thus the ratio of fluorescence at basic pH to that at acidic pH distinguishes adenylated from nonadenylated flavins. […] When the isolated flavins were recombined with sulfhydryl apooxidase, only the product of treatment by boiling was capable of restoring activity to the enzyme.
Determination of sulfhydryl oxidase activity was based upon depletion of O2 from assay mixtures containing thiol compounds, as measured with a Yellow Springs Instruments oxygen monitor (model 500) equipped with a polarographic Clark-type electrodes. In a typical assay, 2.9 mL of a mixture consisting of a thiol compound in an appropriate buffer was equilibrated with stirring to 25° C. After the vial was sealed with the electrode, a volume of 0.1 mL of enzyme solution was injected into the assay mixture. The rate of oxygen depletion was constant during the first 30 seconds of the assay; thus, the initial rate of O2 depletion was taken to be sulfhydryl oxidase activity under the prevailing conditions. One unit of sulfhydryl oxidase was defined as that amount of enzyme which would deplete 1 umole of O2 per minute under the conditions of the assay. Unless otherwise indicated, the assay mixture contained 8 mM GSH in 40 mM acetate buffer, pH 5.5, at 25° C.
In reactivation experiments, freshly prepared apoenzyme was combined with flavin solution and 0.1M sodium phosphate buffer, pH 7.0, in the volume proportions 1:1:2. This mixture was incubated for 14 to 16 hours at 0° C. After the incubation period, the enzyme was separated from excess free flavin by passage through a Pharmacia PD-10 column equilibrated and eluted with 40 mM acetate buffer, pH 5.5.
The flavin component was also extracted from the enzyme by two other methods. Dialyzed sulfhydryl oxidase was boiled for 5 minutes with protection from light and cooled quickly by immersion in ice water. […]

[3] = system: A. niger sulfhydryl oxidase; experiment: Sulfhydryl oxidase activity in presence of chelating agents; type: biochemical, Aspergillus niger; settings: 1 mM chelating agent in 0.05M phosphate buffer, pH 7.0, even after overnight incubation
Text: Since flavin oxidases containing essential metal ions are known to exist, sulfhydryl oxidase was examined for changes in activity upon treatment with the chelating agents.

[4] = molecular target: A. niger sulfhydryl oxidase; experiment: Spectral titration with sodium sulfite (flavin-sulfite complex); type: binding, Aspergillus niger; settings: read-out: Dissociation constant Kd of flavin-sulfite complex
Method: FIG. 3: Absorption spectra of purified sulfhydryl oxidase after reaction with sodium sulfite at pH 6, showing bleaching of the visible bond of SHX spectrum. Each spectrum was recorded 10 minutes after the addition of a small aliquot of sodium sulfite to a cuvette containing 1.8 mg/mL SHX in 50 mM sodium phosphate. Sulfite concentrations after each addition were 0 mM(1), 0.99 mM(2), 2.44 mM(3) and 152 mM(4).
Additional spectral analysis confirms that the SHX of the present invention is a flavoprotein. Most flavin oxidases, but not flavin dehydrogenases, react with sodium sulfite to form a bleached flavin-sulfite complex (Massey et al., 1969). The spectral change incurred by incubation of sulfhydryl oxidase with sodium sulfite at varying concentrations is show in FIG. 3. The dissociation constant Kd =[SHX][SO2 ]/[SHX-SO2 ]for the sulfhydryl oxidase flavin-sulfite complex was calculated from the first few spectra under the assumption that spectrum 4 in FIG. 3 represented full conversion of the enzyme to the sulfite complex, and that the initial excess of sulfite was so large that its concentration was essentially unchanged at equilibrium. The first assumption was justified by the fact that spectrum 4 (152.8 mM sulfite) was identical with the spectrum recorded when the sulfite concentration was just 42.8 mM (not shown).

[5] = molecular target: T1, flavin sulfhydryl oxidase from rat epididymal fluid (Rattus norvegicus, UniProt Q6IUU3); settings: concentrations as high as 0.1M; cited from earlier work
T1 construct: flavin sulfhydryl oxidase from rat epididymal fluid; host or cells: rat epididymal fluid as printed
T1 sequence (Q6IUU3 33-750): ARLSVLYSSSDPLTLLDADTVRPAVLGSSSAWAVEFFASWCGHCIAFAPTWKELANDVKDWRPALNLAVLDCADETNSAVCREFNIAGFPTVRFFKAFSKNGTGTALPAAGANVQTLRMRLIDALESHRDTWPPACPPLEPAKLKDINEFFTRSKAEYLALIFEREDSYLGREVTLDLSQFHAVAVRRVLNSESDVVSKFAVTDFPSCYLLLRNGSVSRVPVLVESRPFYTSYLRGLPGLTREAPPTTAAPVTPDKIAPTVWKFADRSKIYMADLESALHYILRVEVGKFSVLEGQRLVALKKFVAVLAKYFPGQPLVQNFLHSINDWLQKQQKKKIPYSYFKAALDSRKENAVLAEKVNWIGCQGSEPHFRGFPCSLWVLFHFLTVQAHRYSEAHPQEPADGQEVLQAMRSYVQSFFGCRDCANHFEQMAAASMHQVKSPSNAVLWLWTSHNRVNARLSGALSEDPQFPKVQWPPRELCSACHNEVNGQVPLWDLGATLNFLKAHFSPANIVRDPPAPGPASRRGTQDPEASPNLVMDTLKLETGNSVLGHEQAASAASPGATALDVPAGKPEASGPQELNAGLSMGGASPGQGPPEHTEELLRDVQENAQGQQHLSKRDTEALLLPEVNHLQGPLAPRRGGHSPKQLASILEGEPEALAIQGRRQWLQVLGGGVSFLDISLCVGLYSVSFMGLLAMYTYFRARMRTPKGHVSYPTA

[6] = system: A. niger sulfhydryl oxidase; experiment: NAD/NADP as electron acceptors, absorbance at 340 nm; type: biochemical, Aspergillus niger; settings: in the presence of sulfhydryl oxidase and 4 mM GSH

- kcat (app)/Km (app) (head is drawing 1) [1]: 230 min^-1 M^- 1
- kcat (app) [1]: 166.2 s⁻¹
- Km [1]: 43 mM
SMILES: N[C@@H](CS)C(=O)O [Cysteine]

SMILES: O=c1[nH]c(=O)c2[nH]cnc2[nH]1 [xanthine]
- Activity toward substrates of other known oxidases [1]: failed to stimulate

SMILES: NCCCC[C@H](N)C(=O)O [L-lysine]
- Activity toward substrates of other known oxidases [1]: failed to stimulate

- kcat (app)/Km (app) (head is drawing 1) [1]: 26 min^-1 M^- 1
- kcat (app) [1]: 145.2 s⁻¹
SMILES: OCCS [2-Mercaptoethanol]

SMILES: NC(=O)C1=CN([C@@H]2O[C@H](COP(=O)(O)OP(=O)(O)OC[C@H]3O[C@@H](n4cnc5c(N)ncnc54)[C@H](OP(=O)(O)O)[C@@H]3O)[C@@H](O)[C@H]2O)C=CC1 [NADPH, nicotinamide adenine dinucleotide phosphate (reduced)]
- Activity toward substrates of other known oxidases [1]: failed to stimulate

SMILES: NCCCC[C@@H](N)C(=O)O [D-lysine]
- Activity toward substrates of other known oxidases [1]: failed to stimulate

SMILES: Cc1cc2nc3c(=O)[nH]c(=O)nc-3n(C[C@H](O)[C@H](O)[C@H](O)COP(=O)(O)O)c2cc1C [Authentic FMN, flavin mononucleotide]
- Activity [2]: 0.0 units/mL
- Restoration of apooxidase activity toward GSH ([2]; excess FMN, pH 3 to 9, various buffer salts): did not result in any detectable restoration of activity

SMILES: NC(=O)C1=CN([C@@H]2O[C@H](COP(=O)(O)OP(=O)(O)OC[C@H]3O[C@@H](n4cnc5c(N)ncnc54)[C@H](O)[C@@H]3O)[C@@H](O)[C@H]2O)C=CC1 [NADH, nicotinamide adenine dinucleotide (reduced)]
- Activity toward substrates of other known oxidases [1]: failed to stimulate

SMILES: Oc1ccccc1O [catechol]
- Activity toward substrates of other known oxidases [1]: failed to stimulate

- kcat (app)/Km (app) (head is drawing 1) [1]: 110 min^-1 M^- 1
- kcat (app) [1]: 119 s⁻¹
- Km [1]: 66 mM
SMILES: O[C@H](CS)[C@H](O)CS (racemic) [Dithiothreitol]

- kcat (app)/Km (app) (head is drawing 1) [1]: 26,000 min^-1 M^- 1
- kcat (app) [1]: 131.2 s⁻¹
- Km [1]: 0.3 mM
SMILES: N[C@@H](CCC(=O)N[C@@H](CS)C(=O)NCC(=O)O)C(=O)O [Glutathione]

- Activity toward substrates of other known oxidases [1]: failed to stimulate
SMILES: O=C(CO)[C@@H](O)[C@H](O)[C@H](O)CO [D-fructose]

SMILES: c1cnc2c(c1)ccc1cccnc12 [o-phenanthroline]
- Change in sulfhydryl oxidase activity [3]: No activity decreases

- Activity toward substrates of other known oxidases [1]: failed to stimulate
SMILES: NCc1ccccc1 [benzylamine]

SMILES: Oc1cccc2cccnc12 [8-hydroxyquinoline]
- Change in sulfhydryl oxidase activity [3]: No activity decreases

- Activity toward substrates of other known oxidases [1]: failed to stimulate
SMILES: NCCCCN [putrescine]

- Activity toward substrates of other known oxidases [1]: failed to stimulate
SMILES: OC[C@H]1OC(O)[C@H](O)[C@@H](O)[C@@H]1O (stereo partly drawn) [D-glucose]

SMILES: O=S([O-])[O-].[Na+].[Na+] [sodium sulfite]
- Kd ([4]; from spectrum 1 of FIG. 3, pH 6, 50 mM sodium phosphate): 3040 µM
- Kd ([4]; from spectrum 2 of FIG. 3, pH 6, 50 mM sodium phosphate): 2950 µM
- Reaction with sulfite (changes in visible spectrum) [5]: failed to react

SMILES: NC(=O)c1ccc[n+]([C@@H]2O[C@H](COP(=O)([O-])OP(=O)(O)OC[C@H]3O[C@@H](n4cnc5c(N)ncnc54)[C@H](OP(=O)(O)O)[C@@H]3O)[C@@H](O)[C@H]2O)c1 [NADP]
- Electron acceptor, increase in absorbance at 340 nm [6]: did not act as electron acceptors

SMILES: NC(=O)c1ccc[n+]([C@@H]2O[C@H](COP(=O)([O-])OP(=O)(O)OC[C@H]3O[C@@H](n4cnc5c(N)ncnc54)[C@H](O)[C@@H]3O)[C@@H](O)[C@H]2O)c1 [NAD]
- Electron acceptor, increase in absorbance at 340 nm [6]: did not act as electron acceptors

SMILES: Cc1cc2nc3c(=O)[nH]c(=O)nc-3n(C[C@H](O)[C@H](O)[C@H](O)COP(=O)(O)OP(=O)(O)OC[C@H]3O[C@@H](n4cnc5c(N)ncnc54)[C@H](O)[C@@H]3O)c2cc1C [Authentic FAD, flavin adenine dinucleotide]
- Activity [2]: 0.58 units/mL
